Measurements from patent publication US11891374B2, “Derivatized benzimidazole compounds, their salts, their complexes, their pharmaceutical compositions and methods for using them for antigeriatric actions” (priority 2020, dated 2024).

What was measured:
[1] = tested on: imidazoline receptors of all subtypes; conditions: cited from earlier work
[2] = tested on: Drosophila fruit flies; conditions: in vivo

SMILES	concentration range of binding to imidazoline receptors [1] [mM]	MLS (day) Females [2] [days]	MLS (day) Males [2] [days]	extension of lifespan / MLS versus control [2] [fold]	lifespan of Drosophila extended to [2] [days]
N=C(N)NCCCCN [Agmatine, N-(4-aminobutyl)guanidine]	0.5 to 5	–	–	–	–
Cc1cc(C)c2c(c1)nc(Cn1c3ccccc3c(=O)c3ccccc31)n2C [XVg]	–	67 ± 9	66 ± 9	~3	70
